Data reported in paper PMC8964421, “Widespread occurrence of covalent lysine–cysteine redox switches in proteins” (Nature Chemical Biology, 2022).

Target: T1, NgTAL; transaldolase from Neisseria gonorrhoeae (Neisseria gonorrhoeae, UniProt Q5F6E9)
T1 construct: gene tal; recombinant from pET SUMO vector, purified
T1 sequence (Q5F6E9 1-351): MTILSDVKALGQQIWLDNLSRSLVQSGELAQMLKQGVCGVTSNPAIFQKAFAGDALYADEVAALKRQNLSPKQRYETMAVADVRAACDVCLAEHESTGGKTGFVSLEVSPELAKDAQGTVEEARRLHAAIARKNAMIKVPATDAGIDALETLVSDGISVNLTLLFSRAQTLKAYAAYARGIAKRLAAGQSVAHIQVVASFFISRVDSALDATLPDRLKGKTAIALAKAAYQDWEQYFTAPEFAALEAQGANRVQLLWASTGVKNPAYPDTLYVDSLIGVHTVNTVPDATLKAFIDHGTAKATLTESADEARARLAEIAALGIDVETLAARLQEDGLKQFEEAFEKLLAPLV
Assay: coupled enzymatic assay at […] nm, steady-state kinetics
Format: biochemical
Conditions: co-substrate D-erythrose-4-phosphate; reducing (1 mM DTT) and non-reducing conditions; varied substrate not named in main text

O=P(O)(O)OC[C@H]1OC(O)(CO)[C@@H](O)[C@@H]1O (stereo partly drawn) [D-fructose-6-phosphate]
Michaelis constant: monitors the conversion of ketose donor D-fructose-6-phosphate and aldose acceptor D-erythrose-4-phosphate into products
